Assay results reported in PMC6394493 (Cancer Chemotherapy and Pharmacology, 2018).

Assay: Safety assessment: adverse events
Type: in vivo, Japanese patients
Conditions: for Blood alkaline phosphatase increased, All grades / Blood alkaline phosphatase increased, Grade ¾ / Cancer pain, All grades / Cancer pain, Grade ¾ / Decreased appetite, All grades / Decreased appetite, Grade ¾ / Diarrhea, All grades / Diarrhea, Grade ¾ / Dysgeusia, All grades / Dysgeusia, Grade ¾ / Fatigue, All grades / Fatigue, Grade ¾ / Leukopenia, All grades / Leukopenia, Grade ¾ / Lymphopenia, All grades / Lymphopenia, Grade ¾ / Nausea, All grades / Nausea, Grade ¾ / Neutropenia, All grades / Neutropenia, Grade ¾ / Pyrexia, All grades / Pyrexia, Grade ¾ / Rash, All grades / Rash, Grade ¾ / Stomatitis, All grades / Stomatitis, Grade ¾ / Thrombocytopenia, All grades / Thrombocytopenia, Grade ¾ / Vomiting, All grades / Vomiting, Grade ¾ / AEs Total, All grades / AEs Total, Grade ¾ / Alanine aminotransferase increased, All grades / Alanine aminotransferase increased, Grade ¾: regardless of study drug relationship
Description: Safety assessments consisted of monitoring and recording of all AEs, including laboratory abnormalities and vital signs. DLTs were defined as an AE or a laboratory abnormality assessed as related to the study drug and occurring within the first 28 days of treatment (Cycle 1), as defined in Supplemental Table S1.

Cn1c(=O)n(-c2ccc(C(C)(C)C#N)cc2)c2c3cc(-c4cnc5ccccc5c4)ccc3ncc21 [BEZ235]
Blood alkaline phosphatase increased, All grades (qd 1000 mg (n = 8)): 2 (25.0) n (%)
Blood alkaline phosphatase increased, Grade ¾ (qd 1000 mg (n = 8)): 0 n (%)
Cancer pain, All grades (qd 1000 mg (n = 8)): 2 (25.0) n (%)
Cancer pain, Grade ¾ (qd 1000 mg (n = 8)): 0 n (%)
Decreased appetite, All grades (qd 1000 mg (n = 8)): 7 (87.5) n (%)
Decreased appetite, Grade ¾ (qd 1000 mg (n = 8)): 0 n (%)
Diarrhea, All grades (qd 1000 mg (n = 8)): 7 (87.5) n (%)
Diarrhea, Grade ¾ (qd 1000 mg (n = 8)): 0 n (%)
Dysgeusia, All grades (qd 1000 mg (n = 8)): 2 (25.0) n (%)
Dysgeusia, Grade ¾ (qd 1000 mg (n = 8)): 0 n (%)
Fatigue, All grades (qd 1000 mg (n = 8)): 6 (75.0) n (%)
Fatigue, Grade ¾ (qd 1000 mg (n = 8)): 1 (12.5) n (%)
Leukopenia, All grades (qd 1000 mg (n = 8)): 2 (25.0) n (%)
Leukopenia, Grade ¾ (qd 1000 mg (n = 8)): 1 (12.5) n (%)
Lymphopenia, All grades (qd 1000 mg (n = 8)): 2 (25.0) n (%)
Lymphopenia, Grade ¾ (qd 1000 mg (n = 8)): 2 (25.0) n (%)
Nausea, All grades (qd 1000 mg (n = 8)): 7 (87.5) n (%)
Nausea, Grade ¾ (qd 1000 mg (n = 8)): 0 n (%)
Neutropenia, All grades (qd 1000 mg (n = 8)): 1 (12.5) n (%)
Neutropenia, Grade ¾ (qd 1000 mg (n = 8)): 1 (12.5) n (%)
Pyrexia, All grades (qd 1000 mg (n = 8)): 2 (25.0) n (%)
Pyrexia, Grade ¾ (qd 1000 mg (n = 8)): 0 n (%)
Rash, All grades (qd 1000 mg (n = 8)): 5 (62.5) n (%)
Rash, Grade ¾ (qd 1000 mg (n = 8)): 1 (12.5) n (%)
Stomatitis, All grades (qd 1000 mg (n = 8)): 3 (37.5) n (%)
Stomatitis, Grade ¾ (qd 1000 mg (n = 8)): 0 n (%)
Thrombocytopenia, All grades (qd 1000 mg (n = 8)): 4 (50.0) n (%)
Thrombocytopenia, Grade ¾ (qd 1000 mg (n = 8)): 0 n (%)
Vomiting, All grades (qd 1000 mg (n = 8)): 4 (50.0) n (%)
Vomiting, Grade ¾ (qd 1000 mg (n = 8)): 0 n (%)
AEs Total, All grades (qd 1200 mg (n = 6)): 6 (100.0) n (%)
AEs Total, Grade ¾ (qd 1200 mg (n = 6)): 6 (100.0) n (%)
Alanine aminotransferase increased, All grades (qd 1200 mg (n = 6)): 1 (16.7) n (%)
Alanine aminotransferase increased, Grade ¾ (qd 1200 mg (n = 6)): 0 n (%)
Blood alkaline phosphatase increased, All grades (qd 1200 mg (n = 6)): 1 (16.7) n (%)
Blood alkaline phosphatase increased, Grade ¾ (qd 1200 mg (n = 6)): 1 (16.7) n (%)
Cancer pain, All grades (qd 1200 mg (n = 6)): 1 (16.7) n (%)
Cancer pain, Grade ¾ (qd 1200 mg (n = 6)): 0 n (%)
Decreased appetite, All grades (qd 1200 mg (n = 6)): 6 (100.0) n (%)
Decreased appetite, Grade ¾ (qd 1200 mg (n = 6)): 1 (16.7) n (%)
Diarrhea, All grades (qd 1200 mg (n = 6)): 6 (100.0) n (%)
Diarrhea, Grade ¾ (qd 1200 mg (n = 6)): 0 n (%)
Dysgeusia, All grades (qd 1200 mg (n = 6)): 3 (50.0) n (%)
Dysgeusia, Grade ¾ (qd 1200 mg (n = 6)): 0 n (%)
Fatigue, All grades (qd 1200 mg (n = 6)): 4 (66.7) n (%)
Fatigue, Grade ¾ (qd 1200 mg (n = 6)): 2 (33.3) n (%)
Leukopenia, All grades (qd 1200 mg (n = 6)): 1 (16.7) n (%)
Leukopenia, Grade ¾ (qd 1200 mg (n = 6)): 0 n (%)
Lymphopenia, All grades (qd 1200 mg (n = 6)): 1 (16.7) n (%)
Lymphopenia, Grade ¾ (qd 1200 mg (n = 6)): 1 (16.7) n (%)
Nausea, All grades (qd 1200 mg (n = 6)): 5 (83.3) n (%)
Nausea, Grade ¾ (qd 1200 mg (n = 6)): 0 n (%)
Neutropenia, All grades (qd 1200 mg (n = 6)): 2 (33.3) n (%)
Neutropenia, Grade ¾ (qd 1200 mg (n = 6)): 0 n (%)
Pyrexia, All grades (qd 1200 mg (n = 6)): 2 (33.3) n (%)
Pyrexia, Grade ¾ (qd 1200 mg (n = 6)): 0 n (%)
Rash, All grades (qd 1200 mg (n = 6)): 1 (16.7) n (%)
Rash, Grade ¾ (qd 1200 mg (n = 6)): 1 (16.7) n (%)
Stomatitis, All grades (qd 1200 mg (n = 6)): 6 (100.0) n (%)
Stomatitis, Grade ¾ (qd 1200 mg (n = 6)): 1 (16.7) n (%)
Thrombocytopenia, All grades (qd 1200 mg (n = 6)): 0 n (%)
Thrombocytopenia, Grade ¾ (qd 1200 mg (n = 6)): 0 n (%)
Vomiting, All grades (qd 1200 mg (n = 6)): 5 (83.3) n (%)
Vomiting, Grade ¾ (qd 1200 mg (n = 6)): 0 n (%)
AEs Total, All grades (qd 1400 mg (n = 7)): 7 (100.0) n (%)
AEs Total, Grade ¾ (qd 1400 mg (n = 7)): 5 (71.4) n (%)
Alanine aminotransferase increased, All grades (qd 1400 mg (n = 7)): 3 (42.9) n (%)
Alanine aminotransferase increased, Grade ¾ (qd 1400 mg (n = 7)): 1 (14.3) n (%)
Blood alkaline phosphatase increased, All grades (qd 1400 mg (n = 7)): 2 (28.6) n (%)
Blood alkaline phosphatase increased, Grade ¾ (qd 1400 mg (n = 7)): 1 (14.3) n (%)
Cancer pain, All grades (qd 1400 mg (n = 7)): 0 n (%)
Cancer pain, Grade ¾ (qd 1400 mg (n = 7)): 0 n (%)
Decreased appetite, All grades (qd 1400 mg (n = 7)): 6 (85.7) n (%)
Decreased appetite, Grade ¾ (qd 1400 mg (n = 7)): 0 n (%)
Diarrhea, All grades (qd 1400 mg (n = 7)): 7 (100.0) n (%)
Diarrhea, Grade ¾ (qd 1400 mg (n = 7)): 1 (14.3) n (%)
Dysgeusia, All grades (qd 1400 mg (n = 7)): 2 (28.6) n (%)
Dysgeusia, Grade ¾ (qd 1400 mg (n = 7)): 0 n (%)
Fatigue, All grades (qd 1400 mg (n = 7)): 4 (57.1) n (%)
Fatigue, Grade ¾ (qd 1400 mg (n = 7)): 0 n (%)
Leukopenia, All grades (qd 1400 mg (n = 7)): 2 (28.6) n (%)
Leukopenia, Grade ¾ (qd 1400 mg (n = 7)): 1 (14.3) n (%)
Lymphopenia, All grades (qd 1400 mg (n = 7)): 4 (57.1) n (%)
Lymphopenia, Grade ¾ (qd 1400 mg (n = 7)): 1 (14.3) n (%)
Nausea, All grades (qd 1400 mg (n = 7)): 6 (85.7) n (%)
Nausea, Grade ¾ (qd 1400 mg (n = 7)): 0 n (%)
Neutropenia, All grades (qd 1400 mg (n = 7)): 4 (57.1) n (%)
Neutropenia, Grade ¾ (qd 1400 mg (n = 7)): 3 (42.9) n (%)
Pyrexia, All grades (qd 1400 mg (n = 7)): 0 n (%)
Pyrexia, Grade ¾ (qd 1400 mg (n = 7)): 0 n (%)
Rash, All grades (qd 1400 mg (n = 7)): 4 (57.1) n (%)
Rash, Grade ¾ (qd 1400 mg (n = 7)): 0 n (%)
Stomatitis, All grades (qd 1400 mg (n = 7)): 5 (71.4) n (%)
Stomatitis, Grade ¾ (qd 1400 mg (n = 7)): 0 n (%)
Thrombocytopenia, All grades (qd 1400 mg (n = 7)): 3 (42.9) n (%)
Vomiting, All grades (qd 1400 mg (n = 7)): 5 (71.4) n (%)
Vomiting, Grade ¾ (qd 1400 mg (n = 7)): 0 n (%)
AEs Total, All grades (qd All patients (N = 27)): 27 (100.0) n (%)
AEs Total, Grade ¾ (qd All patients (N = 27)): 18 (66.7) n (%)
Alanine aminotransferase increased, All grades (qd All patients (N = 27)): 6 (22.2) n (%)
Alanine aminotransferase increased, Grade ¾ (qd All patients (N = 27)): 1 (3.7) n (%)
Blood alkaline phosphatase increased, All grades (qd All patients (N = 27)): 6 (22.2) n (%)
Blood alkaline phosphatase increased, Grade ¾ (qd All patients (N = 27)): 2 (7.4) n (%)
Cancer pain, All grades (qd All patients (N = 27)): 7 (25.9) n (%)
Cancer pain, Grade ¾ (qd All patients (N = 27)): 1 (3.7) n (%)
Decreased appetite, All grades (qd All patients (N = 27)): 24 (88.9) n (%)
Decreased appetite, Grade ¾ (qd All patients (N = 27)): 1 (3.7) n (%)
Diarrhea, All grades (qd All patients (N = 27)): 25 (92.6) n (%)
Diarrhea, Grade ¾ (qd All patients (N = 27)): 1 (3.7) n (%)
Dysgeusia, All grades (qd All patients (N = 27)): 8 (29.6) n (%)
Dysgeusia, Grade ¾ (qd All patients (N = 27)): 0 n (%)
Fatigue, All grades (qd All patients (N = 27)): 17 (63.0) n (%)
Fatigue, Grade ¾ (qd All patients (N = 27)): 3 (11.1) n (%)
Leukopenia, All grades (qd All patients (N = 27)): 6 (22.2) n (%)
Leukopenia, Grade ¾ (qd All patients (N = 27)): 2 (7.4) n (%)
Lymphopenia, All grades (qd All patients (N = 27)): 10 (37.0) n (%)
Lymphopenia, Grade ¾ (qd All patients (N = 27)): 7 (25.9) n (%)
Nausea, All grades (qd All patients (N = 27)): 22 (81.5) n (%)
Nausea, Grade ¾ (qd All patients (N = 27)): 0 n (%)
Neutropenia, All grades (qd All patients (N = 27)): 8 (29.6) n (%)
Neutropenia, Grade ¾ (qd All patients (N = 27)): 4 (14.8) n (%)
Pyrexia, All grades (qd All patients (N = 27)): 6 (22.2) n (%)
Pyrexia, Grade ¾ (qd All patients (N = 27)): 0 n (%)
Rash, All grades (qd All patients (N = 27)): 11 (40.7) n (%)
Rash, Grade ¾ (qd All patients (N = 27)): 2 (7.4) n (%)
Stomatitis, All grades (qd All patients (N = 27)): 18 (66.7) n (%)
Stomatitis, Grade ¾ (qd All patients (N = 27)): 1 (3.7) n (%)
Thrombocytopenia, All grades (qd All patients (N = 27)): 8 (29.6) n (%)
Thrombocytopenia, Grade ¾ (qd All patients (N = 27)): 3 (11.1) n (%)
Vomiting, All grades (qd All patients (N = 27)): 17 (63.0) n (%)
Vomiting, Grade ¾ (qd All patients (N = 27)): 0 n (%)
patients with study drug-related serious adverse events (SAEs) (qd dosing group): two
patients with Grade 3 or 4 AEs (qd dosing, 18 patients): 66.7%
grade 3 or 4 lymphopenia suspected to be study drug-related (qd group, four patients): 14.8%
study drug discontinuation due to AEs (qd group, seven patients): 25.9%
grade 3 or 4 fatigue suspected to be study drug-related (qd group, three patients): 11.1%
grade 3 or 4 neutropenia suspected to be study drug-related (qd group, three patients): 11.1%
grade 3 or 4 rash suspected to be study drug-related (qd group, two patients): 7.4%
grade 3 or 4 thrombocytopenia suspected to be study drug-related (qd group, two patients): 7.4%
